According to article PMC8044163, “Vitamin D and lumisterol derivatives can act on liver X receptors (LXRs)” (Scientific Reports, 2021):

Test system: brains of SKH-1 mice
Experiment: LXR-dependent gene expression in brain of mice after subcutaneous injection
Type: in vivo, mouse
Details: 6 h, SKH-1-M mice
Protocol: Adult hairless mice SKH-1 (Male, 16 weeks old) and Ptch^+/−/SKH-1 (Male, 18 weeks old) were injected subcutaneously with 20 µg and 10 µg/kg of 20(OH)D3, respectively, dissolved in ethanol, further diluted in propylene glycol (PG) and saline (0.9%) sequentially (1:19:80, v/v/v). Controls were injected with the vehicle without the drug. )After 6 h the animals were killed by halothane followed by cervical dislocation and brains were collected for RNA and protein extraction protocols. The procedures followed the guidelines and approvals of the Institute Animal Care and Use Committee of the University of Alabama at Birmingham (IACUC).
RNA isolated from either fibroblasts, HaCaT cells or brain was submitted for cDNA synthesis (High Capacity cDNA Reverse Transcription Kit with RNase Inhibitor, Applied Biosystems) following the manufacturers’ protocols. RT-PCR was carried out using Cyber green, in triplicates; as previously described. Approximately, 750 ng of cDNA was used for PCR reactions. GAPDH and CIC-B were used as internal controls. Primer sequences are listed in Supplementary Table 27. Data were analyzed using GraphPad Prism statistical software one way ANOVA or t-test, where appropriate; *p < 0.05; **p < 0.01; ***p < 0.001.

C=C1CC[C@H](O)C/C1=C/C=C1\CCC[C@@]2(C)[C@H]1CC[C@@H]2[C@@](C)(O)CCCC(C)C [20(OH)D3]
LXR-dependent gene expression in brain (10 µg/kg): stimulated expression of Abca1, Abcg1, Abcg5, ApoE, Fas and Cyp7a1 | LXR-dependent gene expression in brain (20 µg/kg): stimulated expression of Lpl, Abca1, ApoE and Cyp7a1
